One assay deals with Escherichia coli (ATCC25922) or Staphylococcus aureus (ATCC25923). The assay is described as follows: Antibacterial MIC, microdilution method in Mueller-Hinton medium. The conditions noted are these: Escherichia coli, 18 h, MIC in E. coli or S. aureus; two-fold serial dilutions 64 to 0.5 μg/ml in duplicate; 18 hours of incubation at 35° C.; read-out: Potency (MIC). It counts as cell-based. The method, boiled down: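 Two-fold serial dilutions from 64 to 0.5 μg/ml, in duplicate, by broth microdilution in Mueller-Hinton medium (NCCLS M7-A5). MIC taken as the lowest concentration preventing visible growth after 18 h at 35° C.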
In general terms: In broth dilution the organism is exposed to a series of concentrations in liquid medium.
For `Cl.Nc1ccc(S(=O)(=O)Nc2ccc(Nc3nc(N4CCCCC4)nc(N4CCCCC4)n3)cc2O)cc1` [N-[4-(4-amino-benzenesulfonylamino)-3-hydroxy-phenyl]-4,6-Bis-((3R,5S)-33,5-diamino-piperidin-1-yl)-[1,3,5]triazine-2-amine], the MIC is less than 64 µg/mL.
For `COc1cc(Nc2nc(N3CCCCC3)nc(N3CCCCC3)n2)ccc1NC(=O)c1ccc(Cl)cc1O.Cl` [N-[4-(4-chlorro-2-hydroxy-benzoylamino)-3-methoxy-phenyl]-4,6-Bis-((3R,5S)-3,5-diamino-piperidin-1-yl)-[1,3,5]triazine-2-amine], the MIC was less than 16 µg/mL.
The same measure, in the same setting: with `CCOc1ccc(C(=O)Nc2ccc(Nc3nc(N4CCCCC4)nc(N4CCCCC4)n3)cc2O)cc1.Cl` [N-[4-(4-ethoxy-benzoylamino)-3-hydroxy-phenyl]-4,6-Bis-((3R,5S)-3,5-diamino-piperidin-1-yl)-1,3,5]triazine-2-amine] the figure was less than 16 µg/mL.

The assay is the same for the next values; noted with them: Escherichia coli, 18 h, read-out: Potency (MIC).
Take `COc1ccc(S(=O)(=O)Nc2ccc(Nc3nc(N4C[C@H](N)C[C@H](N)C4)nc(N4C[C@H](N)C[C@H](N)C4)n3)cc2O)cc1OC` [N-[4-(3,4-dimethoxy-benzenesulfonylamino)-3-hydroxy-phenyl]-4,6-Bis-((3R,5S)-3,5-diamino-piperidin-1-yl)-[1,3,5]triazine-2-amine]: the MIC is more than 64 µg/mL.
On the same count and under the same terms, with `Cc1noc(NS(=O)(=O)c2ccc(Nc3nc(N4C[C@H](N)C[C@H](N)C4)nc(N4C[C@H](N)C[C@H](N)C4)n3)cc2)c1C` [N-[4-(3,4-dimethyl-isoxazol-5-ylsulfamoyl)-phenyl]-4,6-Bis-((3R,5S)-3,5-diamino-piperidin-1-yl)-[1,3,5]triazine-2-amine] the figure was more than 64 µg/mL; with `N[C@@H]1C[C@H](N)CN(c2nc(Nc3ccc(NS(=O)(=O)c4cc(Cl)cc(Cl)c4O)c(O)c3)nc(N3C[C@H](N)C[C@H](N)C3)n2)C1` [N-[4-(3,5-dichloro-2-hydroxy-benzenesulfonylamino)-3-hydroxy-phenyl]-4,6-Bis-((3R,5S)-3,5-diamino-piperidin-1-yl)-[1,3,5]triazine-2-amine], less than 16 µg/mL; with `N[C@@H]1C[C@H](N)CN(c2nc(Nc3ccc(C(=O)Nc4cc(Cl)c(O)c(Cl)c4)c(O)c3)nc(N3C[C@H](N)C[C@H](N)C3)n2)C1` [N-[4-(3,5-dichloro-4-hydroxy-phenylcarbamoyl)-3-hydroxy-phenyl]-4,6-Bis-((3R,5S)-3,5-diamino-piperidin-1-yl)-[1,3,5]triazine-2-amine], less than 64 µg/mL.
Take `N[C@@H]1C[C@H](N)CN(c2nc(Nc3ccc(NS(=O)(=O)c4cc(Cl)cc(Cl)c4)c(O)c3)nc(N3C[C@H](N)C[C@H](N)C3)n2)C1` [N-[4-(3,5-dichloro-benzenesulfonylamino)-3-hydroxy-phenyl]-4,6-Bis-((3R,5S)-3,5-diamino-piperidin-1-yl)-[1,3,5]triazine-2-amine]: the MIC was less than 64 µg/mL.
Regarding `N[C@@H]1C[C@H](N)CN(c2nc(Nc3ccc(NC(=O)c4cccc(Br)c4)c(O)c3)nc(N3C[C@H](N)C[C@H](N)C3)n2)C1` [N-[4-(3-bromo-benzoylamino)-3-hydroxy-phenyl]-4,6-Bis-((3R,5S)-3,5-diamino-piperidin-1-yl)-[1,3,5]triazine-2-amine], the MIC was less than 16 µg/mL.
For `N[C@@H]1C[C@H](N)CN(c2nc(Nc3ccc(C(=O)Nc4ccc(F)c(Cl)c4)c(O)c3)nc(N3C[C@H](N)C[C@H](N)C3)n2)C1` [N-[4-(3-chloro-4-fluoro-phenylcarbamoyl)-3-hydroxy-phenyl]-4,6-Bis-((3R,5S)-3,5-diamino-piperidin-1-yl)-[1,3,5]triazine-2-amine], the MIC was less than 16 µg/mL.
`N[C@@H]1C[C@H](N)CN(c2nc(Nc3ccc(C(=O)Nc4cccc(Cl)c4)c(O)c3)nc(N3C[C@H](N)C[C@H](N)C3)n2)C1` [N-[4-(3-chloro-phenylcarbamoyl)-3-hydroxy-phenyl]-4,6-Bis-((3R,5S)-3,5-diamino-piperidin-1-yl)-[1,3,5]triazine-2-amine]: the MIC is less than 16 µg/mL.
On the same count and under the same terms, the value for `N[C@@H]1C[C@H](N)CN(c2nc(Nc3ccc(NS(=O)(=O)CCCCl)c(O)c3)nc(N3C[C@H](N)C[C@H](N)C3)n2)C1` [N-[4-(3-chloro-propane-1-sulfonylamino)-3-hydroxy-phenyl]-4,6-Bis-((3R,5S)-3,5-diamino-piperidin-1-yl)-[1,3,5]triazine-2-amine] was more than 64 µg/mL; that for `Cc1nc(NS(=O)(=O)c2ccc(Nc3nc(N4C[C@H](N)C[C@H](N)C4)nc(N4C[C@H](N)C[C@H](N)C4)n3)cc2)oc1C` [N-[4-(4,5-dimethyl-oxazol-2-ylsulfamoyl)-phenyl]-4,6-Bis-((3R,5S)-3,5-diamino-piperidin-1-yl)-[1,3,5]triazin-2-amine] was more than 64 µg/mL; that for `NC(=O)c1ccc(NC(=O)c2ccc(Nc3nc(N4C[C@H](N)C[C@H](N)C4)nc(N4C[C@H](N)C[C@H](N)C4)n3)cc2O)cc1` [N-[4-(4-carbamoyl-phenylcarbamoyl)-3-hydroxy-phenyl]-4,6-Bis-((3R,5S)-3,5-diamino-piperidin-1-yl)-[1,3,5]triazine-2-amine] was more than 64 µg/mL.
Take `N[C@@H]1C[C@H](N)CN(c2nc(Nc3ccc(NC(=O)c4ccc(Cl)cc4O)c(F)c3)nc(N3C[C@H](N)C[C@H](N)C3)n2)C1` [N-[4-(4-chloro-2-hydroxy-benzoylamino)-3-fluoro-phenyl]-4,6-Bis-((3R,5S)-3,5-diamino-piperidin-1-yl)-[1,3,5]triazine-2-amine]: the MIC is less than 16 µg/mL.
Regarding `N[C@@H]1C[C@H](N)CN(c2nc(Nc3ccc(NC(=O)c4ccc(Cl)cc4O)c(O)c3)nc(N3C[C@H](N)C[C@H](N)C3)n2)C1` [N-[4-(4-chloro-2-hydroxy-benzoylamino)-3-hydroxy-phenyl]-4,6-Bis-((3R,5S)-3,5-diamino-piperidin-1-yl)-[1,3,5]triazine-2-amine], the MIC is less than 16 µg/mL.
Same read-out and setting: with `Cc1cc(Nc2nc(N3C[C@H](N)C[C@H](N)C3)nc(N3C[C@H](N)C[C@H](N)C3)n2)ccc1NC(=O)c1ccc(Cl)cc1O` [N-[4-(4-chloro-2-hydroxy-benzoylamino)-3-methyl-phenyl]-4,6-Bis-((3R,5S)-3,5-diamino-piperidin-1-yl)-[1,3,5]triazine-2-amine] the figure was less than 16 µg/mL.
Take `N[C@@H]1C[C@H](N)CN(c2nc(Nc3ccc(NC(=O)c4ccc(Cl)cc4O)c(C(=O)Nc4ccccc4)c3)nc(N3C[C@H](N)C[C@H](N)C3)n2)C1` [N-[4-(4-chloro-2-hydroxy-benzoylamino)-3-phenylcarbamoyl-phenyl]-4,6-Bis-((3R,5S)-3,5-diamino-piperidin-1-yl)-[1,3,5]triazine-2-amine]: the MIC was less than 16 µg/mL.
Turning to `N[C@@H]1C[C@H](N)CN(c2nc(Nc3ccc(NC(=O)c4ccc(Cl)cc4O)c(C(F)(F)F)c3)nc(N3C[C@H](N)C[C@H](N)C3)n2)C1` [N-[4-(4-chloro-2-hydroxy-benzoylamino)-3-trifluoromethyl-phenyl]-4,6-Bis-((3R,5S)-3,5-diamino-piperidin-1-yl)-[1,3,5]triazine-2-amine], the MIC is less than 16 µg/mL.
As to `N[C@@H]1C[C@H](N)CN(c2nc(Nc3ccc(NC(=O)c4ccc(Cl)cc4O)cc3)nc(N3C[C@H](N)C[C@H](N)C3)n2)C1` [N-[4-(4-chloro-2-hydroxy-benzoylamino)-phenyl]-4,6-Bis-((3R,5S)-3,5-diamino-piperidin-1-yl)-[1,3,5]triazine-2-amine], the MIC is less than 16 µg/mL.
Same read-out and setting: with `N[C@@H]1C[C@H](N)CN(c2nc(Nc3ccc(NC(=O)c4ccc(Cl)cc4)c(O)c3)nc(N3C[C@H](N)C[C@H](N)C3)n2)C1` [N-[4-(4-chloro-benzoylamino)-3-hydroxy-phenyl]-4,6-Bis-((3R,5S)-3,5-diamino-piperidin-1-yl)-[1,3,5]triazine-2-amine] the figure was less than 16 µg/mL; with `N[C@@H]1C[C@H](N)CN(c2nc(Nc3ccc(C(=O)Nc4ccc(Cl)cc4)c(O)c3)nc(N3C[C@H](N)C[C@H](N)C3)n2)C1` [N-[4-(4-chloro-phenylcarbamoyl)-3-hydroxy-phenyl]-4,6-Bis-((3R,5S)-3,5-diamino-piperidin-1-yl)-[1,3,5]triazine-2-amine], less than 64 µg/mL; with `N#Cc1ccc(NC(=O)c2ccc(Nc3nc(N4C[C@H](N)C[C@H](N)C4)nc(N4C[C@H](N)C[C@H](N)C4)n3)cc2O)cc1` [N-[4-(4-cyano-phenylcarbamoyl)-3-hydroxy-phenyl]-4,6-Bis-((3R,5S)-3,5-diamino-piperidin-1-yl)-[1,3,5]triazine-2-amine], less than 64 µg/mL.
The same measure, in the same setting: with `CCCCCCCCCC(=O)Nc1ccc(S(=O)(=O)Nc2ccc(Nc3nc(N4C[C@H](N)C[C@H](N)C4)nc(N4C[C@H](N)C[C@H](N)C4)n3)cc2O)cc1` [N-[4-(4-decanoylamino-benzenesulfonylamino)-3-hydroxy-phenyl]-4,6-Bis-((3R,5S)-3,5-diamino-piperidin-1-yl)-[1,3,5]triazine-2-amine] the figure was less than 16 µg/mL; with `CN(C)c1ccc(C(=O)Nc2ccc(Nc3nc(N4C[C@H](N)C[C@H](N)C4)nc(N4C[C@H](N)C[C@H](N)C4)n3)cc2O)c(O)c1` [N-[4-(4-dimethylamino-2-hydroxy-benzoylamino)-3-hydroxy-phenyl]-4,6-Bis-((3R,5S)-3,5-diamino-piperidin-1-yl)-[1,3,5]triazine-2-amine], less than 16 µg/mL.
Consider `CN(C)c1ccc(C(=O)Nc2ccc(Nc3nc(N4C[C@H](N)C[C@H](N)C4)nc(N4C[C@H](N)C[C@H](N)C4)n3)cc2)c(O)c1` [N-[4-(4-dimethylamino-2-hydroxy-benzoylamino)-phenyl]-4,6-Bis-((3R,5S)-3,5-diamino-piperidin-1-yl)-[1,3,5]triazine-2-amine], for which the MIC is less than 16 µg/mL.
Still for that read-out and setting: the value for `N[C@@H]1C[C@H](N)CN(c2nc(Nc3ccc(NC(=O)c4ccc(F)cc4O)c(O)c3)nc(N3C[C@H](N)C[C@H](N)C3)n2)C1` [N-[4-(4-fluoro-2-hydroxy-benzoylamino)-3-hydroxy-phenyl]-4,6-Bis-((3R,5S)-3,5-diamino-piperidin-1-yl)-[1,3,5]triazine-2-amine] was less than 16 µg/mL.

Broadly, the MIC is the smallest concentration in the dilution series that meets the test's criterion for growth inhibition.

Values taken from patent US7223759B2, “Antibacterial 3,5-diaminopiperidine-substituted aromatic and heteroaromatic compounds” (Anadys Pharmaceuticals, Inc., priority 2003, dated 2007).
